Converted amounts (≈) assume the structure as drawn. The source made the active and inactive calls. The rule behind the calls is not given here.
Assays:
Pseudomonas aeruginosa [1] = assay: Antibiofilm activity against Pseudomonas aeruginosa PAO1 ATCC 15692 assessed as effect on biofilm 3D structures at half MIC concentration after 24 hrs by AO-staining based confocal microscopy; assay type: functional, organism-based
in vitro [2] = settings: human, Caco-2
Description: Apparent permeability across apical to basolateral side in human Caco2 cells at 10 uM after 120 mins by LC-MS/MS analysis

Bacillus spizizenii = assay: Antibacterial activity against Bacillus subtilis ATCC 6633 after 18 hrs by microdilution broth method; assay type: functional; settings: ATCC 6633, 18 h
Escherichia coli [3] = assay: Antibacterial activity against Escherichia coli CCUG deficient in potI gene; assay type: functional, organism-based
HeLa [4] = assay: Cytotoxicity against human HeLa cells assessed as reduction in cell viability at 256 ug/ml after 24 hrs by celltox green-based assay relative to control
Acinetobacter baumannii [5] = assay: Disruption of inner membrane integrity in Acinetobacter baumannii ATCC 19606 co-expressing pMP2200::PrrnB plasmid assessed as induction of […] conversion at 256 ug/ml measured at 10 mins intervals for 1 hr; assay type: functional, organism-based; settings: ATCC 19606 = CIP 70.34 = JCM 6841
Escherichia coli [6] = assay: Antibacterial activity against Escherichia coli CCUG deficient in potE gene; assay type: functional, organism-based
Pseudomonas aeruginosa [7] = assay: Disruption of Pseudomonas aeruginosa PAO1 ATCC 15692 outer membrane integrity assessed as induction of NPN uptake after 30 mins by NPN fluorescence-based assay; assay type: functional, organism-based
Klebsiella pneumoniae [8] = assay: Antibacterial activity against Klebsiella pneumoniae isolate SI-081 after 18 hrs by microdilution broth method; assay type: functional; settings: isolate SI-081, 18 h
Escherichia coli [9] = assay: Antibacterial activity against Escherichia coli CCUG deficient in potD gene; assay type: functional, organism-based
Escherichia coli [10] = assay: Antibacterial activity against Escherichia coli MG1655 cultured in MHB supplemented with 10% human serum assessed as reduction in bacterial growth at 1 ug/ml after 24 hrs; assay type: functional, organism-based; settings: K-12 substr. MG1655
Pseudomonas aeruginosa [11] = assay: Antibacterial activity against Pseudomonas aeruginosa ATCC 27853 after 18 hrs by microdilution broth method; assay type: functional; settings: ATCC 27853, 18 h
[12] = 1-Octanol/Tris buffer distribution coefficient, log D of the compound at pH 7.4 by HPLC analysis; assay type: physicochemical
Escherichia coli [13] = assay: Antibacterial activity against Escherichia coli CCUG deficient in potF gene; assay type: functional, organism-based
Pseudomonas aeruginosa [14] = assay: Antibiofilm activity against Pseudomonas aeruginosa PAO1 ATCC 15692 at half MIC concentration after 24 hrs by crystal violet-based assay; assay type: functional, organism-based
Escherichia coli [15] = assay: Antibacterial activity against Escherichia coli CCUG deficient in potA gene; assay type: functional, organism-based
Escherichia coli [16] = assay: Antibacterial activity against Escherichia coli CCUG deficient in potG gene; assay type: functional, organism-based
[17] = tested on: Stenotrophomonas maltophilia; assay: Antibacterial activity against Stenotrophomonas maltophilia isolate 634/08 after 18 hrs by microdilution broth method; assay type: functional; settings: isolate 634/08, 18 h
Albumin [18] = molecular target: T1, Albumin (Homo sapiens, UniProt P02768); assay: Binding affinity to human serum albumin assessed as dissociation constant after 30 mins by fluorescence-based assay; assay type: ADME
T1 sequence (P02768 whole entry): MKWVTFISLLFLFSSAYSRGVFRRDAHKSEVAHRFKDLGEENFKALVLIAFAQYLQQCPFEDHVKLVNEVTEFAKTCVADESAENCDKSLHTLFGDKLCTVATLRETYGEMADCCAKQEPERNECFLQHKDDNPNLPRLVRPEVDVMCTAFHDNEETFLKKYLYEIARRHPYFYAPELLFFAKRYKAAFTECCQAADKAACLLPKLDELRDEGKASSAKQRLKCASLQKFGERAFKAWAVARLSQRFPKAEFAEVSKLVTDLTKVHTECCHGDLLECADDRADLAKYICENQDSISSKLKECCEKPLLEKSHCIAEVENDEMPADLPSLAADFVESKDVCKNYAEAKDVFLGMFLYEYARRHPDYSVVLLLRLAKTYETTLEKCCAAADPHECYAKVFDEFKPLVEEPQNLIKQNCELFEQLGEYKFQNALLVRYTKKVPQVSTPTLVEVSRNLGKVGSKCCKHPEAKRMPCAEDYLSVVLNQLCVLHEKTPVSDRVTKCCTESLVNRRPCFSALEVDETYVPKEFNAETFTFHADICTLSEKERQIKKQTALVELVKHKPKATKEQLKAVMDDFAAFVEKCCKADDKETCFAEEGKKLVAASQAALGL

Escherichia coli [19] = assay: Antibiofilm activity against Escherichia coli MG1655 ATCC 47076 at half MIC concentration after 24 hrs by crystal violet-based assay; assay type: functional, organism-based; settings: K-12 substr. MG1655 ATCC 47076
[20] = Binding affinity to AGP (unknown origin) assessed as dissociation constant after 30 mins by fluorescence-based assay; assay type: ADME, Homo sapiens
Acinetobacter baumannii [21] = assay: Antibiofilm activity against Acinetobacter baumannii ATCC 19606 assessed as effect on biofilm 3D structures at half MIC concentration after 24 hrs by AO-staining based confocal microscopy; assay type: functional, organism-based; settings: ATCC 19606 = CIP 70.34 = JCM 6841
Escherichia coli [22] = assay: Antibiofilm activity against Escherichia coli MG1655 ATCC 47076 assessed as effect on biofilm 3D structures at half MIC concentration after 24 hrs by AO-staining based confocal microscopy; assay type: functional, organism-based; settings: K-12 substr. MG1655 ATCC 47076
Escherichia coli [23] = assay: Bactericidal activity against Escherichia coli CCUG assessed as log reduction in CFU at 2 times MIC concentration after 1 hr by time kill assay; assay type: functional
[24] = Hemolytic activity against human erythrocytes assessed as induction of hemolysis at 64 ug/ml after 30 mins; assay type: cell-based, Erythrocyte; settings: read-out: Activity
Klebsiella pneumoniae [25] = assay: Antibacterial activity against Klebsiella pneumoniae ATCC […] after 18 hrs by microdilution broth method; assay type: functional
Escherichia coli [26] = assay: Disruption of inner membrane integrity in Escherichia coli MG1655 assessed as induction of […] conversion at 256 ug/ml measured at 10 mins intervals for 1 hr; assay type: functional, organism-based; settings: K-12 substr. MG1655
Escherichia coli [27] = assay: Antibacterial activity against Escherichia coli CCUG deficient in potH gene; assay type: functional, organism-based
Pseudomonas aeruginosa [28] = assay: Disruption of inner membrane integrity in Pseudomonas aeruginosa PAO1 ATCC 15692 co-expressing pMP2200::PrrnB plasmid assessed as induction of OPNG conversion at 256 ug/ml measured at 10 mins intervals for 1 hr; assay type: functional, organism-based
Escherichia coli [29] = assay: Disruption of Escherichia coli MG1655 ATCC 47076 outer membrane integrity assessed as induction of NPN uptake after 30 mins by NPN fluorescence-based assay; assay type: functional, organism-based; settings: K-12 substr. MG1655 ATCC 47076
HeLa [30] = assay: Cytotoxicity against human HeLa cells assessed as reduction in cell viability at 16 ug/ml after 24 hrs by celltox green-based assay
Escherichia coli [31] = assay: Antibacterial activity against Escherichia coli CCUG after 18 hrs by microdilution broth method
Escherichia coli [32] = assay: Antibacterial activity against Escherichia coli CCUG deficient in potB gene; assay type: functional, organism-based
Streptococcus pyogenes = assay: Antibacterial activity against Streptococcus pyogenes ATCC 12344 after 18 hrs by microdilution broth method; assay type: functional; settings: ATCC 12344, 18 h
Staphylococcus aureus = assay: Antibacterial activity against Staphylococcus aureus ATCC 25923 after 18 hrs by microdilution broth method; assay type: functional; settings: ATCC 25923, 18 h
in vitro [33] = settings: human, Caco-2; remark: listed apart in the source
Description: Efflux ratio of apparent permeability in human Caco2 cells at 10 uM after 120 mins by LC-MS/MS analysis

Escherichia coli [34] = assay: Antibacterial activity against Escherichia coli CCUG assessed as inhibition of microbial growth at >32 ug/ml measured up to 48 hrs; assay type: functional, organism-based
Acinetobacter baumannii [35] = assay: Antibacterial activity against Acinetobacter baumannii ATCC 17978 after 18 hrs by microdilution broth method; assay type: functional; settings: ATCC 17978, 18 h
Albumin [36] = molecular target: T1, Albumin; assay: Binding affinity to human serum albumin assessed as Bmax after 30 mins by fluorescence-based assay; assay type: ADME; settings: isolated protein, 0.5 h
Escherichia coli [37] = assay: Ratio of MIC for Escherichia coli MG1655 cultured in MHB supplemented with 10% human serum after 24 hrs to MIC for Escherichia coli MG1655 cultured in absence of 10% human serum; assay type: functional, K-12 substr. MG1655
Acinetobacter baumannii [38] = assay: Disruption of Acinetobacter baumannii ATCC 19606 outer membrane integrity assessed as induction of NPN uptake after 30 mins by NPN fluorescence-based assay; assay type: functional, organism-based; settings: ATCC 19606 = CIP 70.34 = JCM 6841
[39] = Apparent permeability of the compound after 5 hrs by PAMPA; assay type: ADME
[40] = Metabolic stability in human liver microsomes at 50 uM after 60 mins in presence of NADPH by LC-UV-MS analysis; assay type: ADME, Microsome; settings: read-out: Stability
Burkholderia cepacia = assay: Antibacterial activity against Burkholderia cepacia isolate SI-R2 after 18 hrs by microdilution broth method; assay type: functional; settings: isolate SI-R2, 18 h
Escherichia coli [41] = assay: Induction of cytoplasmic membrane depolarization in Escherichia coli at 16 ug/ml by DiSC3-5-fluorescence based assay
[42] = Binding affinity to AGP (unknown origin) assessed as Bmax after 30 mins by fluorescence-based assay; assay type: ADME; settings: human, isolated protein, 0.5 h
Escherichia coli [43] = assay: Antibacterial activity against Escherichia coli MG1655 cultured in MHB supplemented with 5 to 40 mg/ml at 1 to 2 ug/ml after 24 hrs; assay type: functional, organism-based; settings: K-12 substr. MG1655
Acinetobacter baumannii [44] = assay: Antibiofilm activity against Acinetobacter baumannii ATCC 19606 at half MIC concentration after 24 hrs by crystal violet-based assay; assay type: functional, organism-based; settings: ATCC 19606 = CIP 70.34 = JCM 6841
Enterobacter cloacae = assay: Antibacterial activity against Enterobacter cloacae isolate VA-417/02 after 18 hrs by microdilution broth method; assay type: functional; settings: isolate VA-417/02, 18 h
Enterococcus faecalis = assay: Antibacterial activity against Enterococcus faecalis ATCC 19433 after 18 hrs by microdilution broth method; assay type: functional; settings: ATCC 19433, 18 h
Acinetobacter baumannii [45] = assay: Antibacterial activity against Acinetobacter baumannii isolate AC-54/97 after 18 hrs by microdilution broth method; assay type: functional; settings: isolate AC-54/97, 18 h

N=C(N)NCCCCCCCCN(CCCCCCCCNC(=N)NCC1CC1)C(=O)N(CCCCCCCCNC(=N)N)CCCCCCCCNC(=N)NCC1CC1
Activity (Pseudomonas aeruginosa [1]): inactive | Papp A→B at 2 h, 10 µM (in vitro [2]): 0.19 ×10⁻⁶ cm/s | MIC (Bacillus spizizenii): 0.5 µg/mL (≈ 0.591 µM) | Activity (Escherichia coli [3]): Active | Activity (HeLa [4]): <= 60% | Activity (Acinetobacter baumannii [5]): inactive | Activity (Escherichia coli [6]): Active | Activity (Pseudomonas aeruginosa [7]): Dose-dependent effect | MIC (Klebsiella pneumoniae [8]): 2 µg/mL (≈ 2.37 µM) | Activity (Escherichia coli [9]): Active | growth inhibition (GI) (Escherichia coli [10]): inactive | MIC (Pseudomonas aeruginosa [11]): 8 µg/mL (≈ 9.46 µM) | logD [12]: -0.79 | Activity (Escherichia coli [13]): Active | Activity (Pseudomonas aeruginosa [14]): inactive | Activity (Escherichia coli [15]): Active | Activity (Escherichia coli [16]): Active | MIC [17]: 16 µg/mL (≈ 18.9 µM) | Kd (Albumin [18]): 23.3 µM | Activity (Escherichia coli [19]): inactive | Kd [20]: 0.11 µM | Activity (Acinetobacter baumannii [21]): inactive | Activity (Escherichia coli [22]): inactive | Activity (Escherichia coli [23]): >=4 log10CFU/ml | hemolysis at 0.5 h, 64 ug/ml [24]: 0 to 7% | MIC (Klebsiella pneumoniae [25]): 2 µg/mL (≈ 2.37 µM) | Activity (Escherichia coli [26]): inactive | Activity (Escherichia coli [27]): Active | Activity (Pseudomonas aeruginosa [28]): inactive | Activity (Escherichia coli [29]): Dose-dependent effect | Activity (HeLa [30]): Non-Toxic | MIC (Escherichia coli [31]): 2 µg/mL (≈ 2.37 µM) | Activity (Escherichia coli [32]): Active | MIC (Streptococcus pyogenes): 1 µg/mL (≈ 1.18 µM) | MIC (Staphylococcus aureus): 2 µg/mL (≈ 2.37 µM) | efflux ratio at 2 h, 10 µM (in vitro [33]): 0.65 | Activity (Escherichia coli [34]): Active | MIC (Acinetobacter baumannii [35]): 8 µg/mL (≈ 9.46 µM) | Bmax (Albumin [36]): 14% | Ratio (Escherichia coli [37]): 2 | Activity (Acinetobacter baumannii [38]): Dose-dependent effect | Papp at 5 h [39]: 1.6 ×10⁻⁶ cm/s | remaining at 1 h, 50 µM [40]: > 99% | MIC (Burkholderia cepacia): 16 µg/mL (≈ 18.9 µM) | Activity (Escherichia coli [41]): inactive | Bmax [42]: 30.2% | Activity (Escherichia coli [43]): Active | Activity (Acinetobacter baumannii [44]): inactive | MIC (Enterobacter cloacae): 1 µg/mL (≈ 1.18 µM) | MIC (Enterococcus faecalis): 2 µg/mL (≈ 2.37 µM) | MIC (Acinetobacter baumannii [45]): 2 µg/mL (≈ 2.37 µM)

N=C(N)NCCCCCCCCCCN(CCCCCCCCCCNC(=N)NCC1CC1)C(=O)N(CCCCCCCCCCNC(=N)N)CCCCCCCCCCNC(=N)NCC1CC1
Activity (Pseudomonas aeruginosa [1]): inactive | MIC (Bacillus spizizenii): 2 µg/mL (≈ 2.09 µM) | Activity (Acinetobacter baumannii [5]): inactive | Activity (Pseudomonas aeruginosa [7]): Dose-dependent effect | MIC (Pseudomonas aeruginosa [11]): 64 µg/mL (≈ 66.8 µM) | Activity (Pseudomonas aeruginosa [14]): inactive | Activity (Escherichia coli [19]): inactive | Activity (Acinetobacter baumannii [21]): inactive | Activity (Escherichia coli [22]): inactive | hemolysis at 0.5 h, 64 ug/ml [24]: 41 to 54% | MIC (Klebsiella pneumoniae [25]): 8 µg/mL (≈ 8.35 µM) | Activity (Escherichia coli [26]): inactive | Activity (Pseudomonas aeruginosa [28]): inactive | Activity (Escherichia coli [29]): Dose-dependent effect | MIC (Escherichia coli [31]): 16 µg/mL (≈ 16.7 µM) | MIC (Streptococcus pyogenes): 4 µg/mL (≈ 4.18 µM) | MIC (Staphylococcus aureus): 8 µg/mL (≈ 8.35 µM) | MIC (Acinetobacter baumannii [35]): 64 µg/mL (≈ 66.8 µM) | Activity (Acinetobacter baumannii [38]): Dose-dependent effect | Activity (Acinetobacter baumannii [44]): inactive | MIC (Enterococcus faecalis): 4 µg/mL (≈ 4.18 µM)

CC(C)NCC(O)COc1cccc2ccccc12 (stereo not drawn) [PROPRANOLOL]
efflux ratio at 2 h, 10 µM (in vitro [33]): 0.4

From ChEMBL document CHEMBL4308851, “Alkyl-guanidine Compounds as Potent Broad-Spectrum Antibacterial Agents: Chemical Library Extension and Biological Characterization” (J Med Chem, 2018)
